Experimental data: patent US20110189243A1, “PHARMACEUTICAL FORMULATION FOR LOWERING PULMONARY BLOOD PRESSURE” (Ratiopharm GMBH, priority 2008, published 2011)

Assay: Particle size by laser diffractometry (Malvern Mastersizer 2000)
Assay type: physicochemical
Conditions: after milling 30 minutes at 350 rpm in a Retsch ball mill
Description: The expression “average particle diameter” relates in the context of this invention to the D50 value of the volume-average particle diameter determined by means of laser diffractometry. In particular, a Malvern Instruments Mastersizer 2000 was used to determine the diameter (wet measurement, 2,000 rpm, ultrasound 60 sec., preferably shading 4 to 13%, preferably dispersion in liquid paraffin, the evaluation using the Fraunhofer method). The average particle diameter, which is also referred to as the D50 value of the integral volume distribution, is defined in the context of this invention as the particle diameter at which 50% by volume of the particles have a smaller diameter than the diameter which corresponds to the D50 value. Similarly, 50% by volume of the particles than have a larger diameter than the D50 value. Analogously, the D10 value of the integral volume distribution is defined as the particle diameter at which 10% by volume of the particles have a smaller diameter than the diameter which corresponds to the D10 value. Accordingly, the D90 value of the integral volume distribution is defined as the particle diameter at which 90% by volume of the particles have a smaller diameter than the diameter which corresponds to the D90 value.

particle size d10: 5 μm | particle size d50: 18 μm | particle size d90: 63 μm
Compound: COC(c1ccccc1)(c1ccccc1)[C@H](Oc1nc(C)cc(C)n1)C(=O)O [Example 3, (2S)-2-(4,6-dimethylpyrimidin-2-yl)oxy-3-methoxy-3,3-di(phenyl)propanoic acid]
